Source: PubChem BioAssay (NCI)
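96-well plates; 48 h exposure; 5 concentrations. Endpoints by linear interpolation between flanking doses. Not reached: highest tested concentration assigned. GI50 is the concentration that inhibits growth by half. TGI denotes the concentration required for complete inhibition of growth.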

Tests used:
Experiment in all cases: NCI anticancer screen, dose series, 48 h
DMS 273 small cell lung = system: DMS 273 small cell lung
EKVX NSCLC = system: EKVX NSCLC
SF-295 CNS = system: SF-295 CNS
SK-OV-3 ovarian = system: SK-OV-3 ovarian
UO-31 renal = system: UO-31 renal
SNB-19 CNS = system: SNB-19 CNS
XF 498 CNS = system: XF 498 CNS
HCT-116 colon = system: HCT-116 colon
KM12 colon = system: KM12 colon
HS 578T breast = system: HS 578T breast

Row | SMILES | TGI (DMS 273 small cell lung) [µM] | TGI (EKVX NSCLC) [µM] | TGI (SF-295 CNS) [µM] | TGI (SK-OV-3 ovarian) [µM] | TGI (UO-31 renal) [µM] | TGI (SNB-19 CNS) [µM] | TGI (XF 498 CNS) [µM] | TGI (HCT-116 colon) [µM] | TGI (KM12 colon) [µM] | TGI (HS 578T breast) [µM] | GI50 (KM12 colon) [µM] | GI50 (UO-31 renal) [µM] | GI50 (SNB-19 CNS) [µM] | GI50 (HCT-116 colon) [µM]
1 | Clc1ccc(C2N3CCCCC3[C@@H]3c4[nH]c5ccccc5c4CCN23)cc1 (some centres not stated) | > 100 | > 100 | > 100 | > 100 | > 100 | > 100 | > 100 | > 100 |  |  |  |  |  | 
2 | N#CC(C(=N/O)/C(=N/O)C(C#N)c1ccc(Cl)cc1)c1ccc(Cl)cc1 (configuration not stated) | > 100 | > 100 | > 100 | > 100 | > 100 | > 100 | > 100 | > 100 | > 100 |  |  |  |  | 
3 | CCCCN(CCCC)C(=O)C(=O)C(C#N)c1ccc(C)cc1 (configuration not stated) | > 100 | > 100 | > 100 |  | > 100 | > 100 | > 100 | > 100 | > 100 |  |  |  |  | 
4 | CN(C)CCC(=O)N1C/C(=C/c2ccccc2)C(=O)/C(=C\c2ccccc2)C1 | 3.26 | 12.6 | 8.55 | 15.2 | 5.21 | 7.62 | 6.69 | 1.15 | 1.73 | 20.3 |  |  |  | 
5 | CCOC(=O)NC(=O)c1cn(C2OC(COC(=O)CCCCCCCCC(=O)OCC3OC(n4cc(C(=O)NC(=O)OCC)c(=O)[nH]c4=O)C(O)C3O)C(O)C2O)c(=O)[nH]c1=O (configuration not stated) | > 100 | > 100 | > 100 |  | > 100 | > 100 | > 100 | > 100 | > 100 |  |  |  |  | 
6 | O=C1OCc2c1cc1ccc(O)c(OC3OC(CO)C(O)C(O)C3O)c1c2-c1ccc2c(c1)OCO2 (configuration not stated) | > 100 | > 100 | > 100 | > 100 | > 100 | > 100 | > 100 | > 100 | > 100 |  | 23.4 | 27.2 | 36 | 39.7
7 | CN(C(=O)C12C3C4C1C1C2C3C41C(=O)C(C)(C)C)C(C)(C)C (configuration not stated) | > 100 | > 100 | > 100 | > 100 | > 100 | > 100 | > 100 | > 100 | > 100 |  |  |  |  | 
8 | N#C/C(=C/c1ccsc1)C(=O)c1ccccc1 | > 100 | > 100 | > 100 | > 100 | > 100 | > 100 | > 100 | > 100 | > 100 |  |  |  |  | 
9 | O=C(N/N=C/c1ccccc1O)c1cccc([N+](=O)[O-])c1 | > 100 | 82.8 | 68.3 | > 78.3 | 56.5 | > 100 | > 100 | > 100 | > 100 |  |  |  |  | 
10 | COC(=O)CC(=O)C[P+](c1ccccc1)(c1ccccc1)c1ccccc1 | > 218 | > 218 | > 218 | > 218 |  | > 218 | 201 | > 218 | > 218 |  |  |  |  | 
11 | CCN(CC)c1c(C(=O)/C=C/c2ccccc2)c(-c2ccccc2)nn(C)c1=O | > 100 | > 100 | > 100 | > 100 | > 100 | > 100 | > 100 |  | > 100 |  |  |  |  | 
12 | COc1ccc(OC)c(NC(=O)C(=O)C(C(C)=O)c2nc3ccc(Cl)cc3[nH]c2=O)c1 (configuration not stated) | > 50 | > 50 | > 50 | > 50 | > 50 | > 50 | > 50 | > 50 | > 50 |  |  |  |  | 
13 | CCCCCCCCCCCCCC(=O)OC1CC(=O)OC1CO (configuration not stated) | > 100 | > 100 | 45.5 | > 100 | 92.6 | > 100 | > 100 | > 100 | 56.7 |  |  |  |  | 
14 | COC(=O)C(=O)C(C(=O)C=C(C)C)C(=O)C(=O)Nc1cc(C(F)(F)F)ccc1Cl (configuration not stated) | > 100 | > 100 | > 100 | > 100 | > 100 | > 100 | > 100 | > 100 | > 100 |  |  |  |  | 
15 | Cc1ccc(S(=O)(=O)C(CC(=O)N2CCCC2)C(=O)c2ccccc2)cc1 (configuration not stated) | > 100 |  | > 100 |  | > 100 | > 100 | > 100 | > 100 | > 100 |  |  |  |  | 
16 | Cc1cc(N(CCOS(C)(=O)=O)CCOS(C)(=O)=O)ccc1C=Nc1ccc(-c2nc(Cc3ccccc3)sc2C)cc1 | 21.7 | 15.8 | 32.4 | 4.56 | 18.3 | 43.9 | 9.12 | 35 | 34 | 34.6 |  |  |  | 
17 | COC(=O)C[C@H]1CCC2(OCCO2)[C@]1(C)C(=O)OC | > 100 | > 100 | > 100 | > 100 | > 100 | > 100 | > 100 | > 100 | > 100 |  |  |  |  | 
18 | N#CC1(Cc2ccc(N)cc2)c2ccccc2C=CN1C(=O)c1ccccc1 (configuration not stated) | > 100 | > 100 | > 100 | > 100 | 84.2 | > 100 | > 100 | > 100 | > 100 |  |  |  |  | 
19 | COc1ccc2cc1Oc1ccc(cc1)CC1c3cc(c(OC)cc3CCN1C)Oc1c3c(cc4c1C(C2)N(C)CC4)OCO3 (configuration not stated) | 17.2 | 29.8 | 21.9 |  |  | 31.5 | 21.6 | 26.8 | 27.2 |  |  |  |  | 
20 | CCCCCCCCCCCC(=O)CC(=O)c1c(O)cccc1O | 32.6 | 33.4 | 34.8 | 95.5 | 29.3 | 36.8 | 33.3 | 31.1 | 31.2 |  |  |  |  | 
